From US20110171274A1, “Fesoterodine Substantially Free of Dehydroxy Impurity” (ACTAVIS GROUP PTC EHF, priority 2008, published 2011)
Counter-ions that a name gives are not always drawn.

Legend:
Format in all cases: physicochemical
[1] = Particle size distribution by laser diffraction (Malvern Master Sizer 2000); settings: for Particle Size (D10) / Particle Size (D50) / Particle Size (D90): as crystallised from isopropyl alcohol / isopropyl ether
From the text: As used herein, “Particle Size Distribution (PSD)” means the cumulative volume size distribution of equivalent spherical diameters as determined by laser diffraction in Malvern Master Sizer 2000 equipment or its equivalent. “Mean particle size distribution, i.e., (D50)” correspondingly, means the median of said particle size distribution.
The important characteristics of the PSD were the (D90), which is the size, in microns, below which 90% of the particles by volume are found, and the (D50), which is the size, in microns, below which 50% of the particles by volume are found.

[2] = Solubility of fesoterodine fumarate in solvents
[3] = Storage stability (crystalline form, lack of formation of impurities); settings: about 25±2° C., relative humidity about 60±5%
From the text: The term “remains stable”, as defined herein, refers to lack of formation of impurities, while being stored as described hereinbefore.

Particle Size (D10) [1] [μm]	Particle Size (D50) [1] [μm]	Particle Size (D90) [1] [μm]	SMILES	also measured
4.518	22.291	85.415	CC(C)C(=O)Oc1ccc(CO)cc1[C@H](CCN(C(C)C)C(C)C)c1ccccc1 [Example 8, Fesoterodine Fumarate]	–
–	–	–	CC(C)C(=O)Oc1ccc(CO)cc1[C@H](CCN(C(C)C)C(C)C)c1ccccc1 [Fesoterodine fumarate, 2-[(1R)-3-[bis(1-methylethyl)amino]-1-phenylpropyl]-4-hydroxymethylphenyl isobutyrate]	solubility in aqueous solvents ([2]; aqueous solvents): freely soluble; solubility in heptane ([2]; heptane): practically insoluble; solubility in polar non protic solvents ([2]; polar non protic solvents (acetone, DMF, DMSO, acetonitrile)): soluble; solubility in polar protic organic solvents ([2]; some polar protic organic solvents (ethanol, methanol, glacial acetic acid, 2-propanol, propylene glycol)): soluble; solubility in toluene ([2]; toluene): slightly soluble; storage stability ([3]; 3 months): remains in the same crystalline form and stable; storage stability ([3]; at least one month): remains in the same crystalline form and stable
4.485	31.876	110.282	CC(C)C(=O)Oc1ccc(CO)cc1[C@H](CCN(C(C)C)C(C)C)c1ccccc1 [Example 9, Fesoterodine Fumarate]	–
4.243	14.875	90.272	CC(C)C(=O)Oc1ccc(CO)cc1[C@H](CCN(C(C)C)C(C)C)c1ccccc1 [Example 7, Fesoterodine Fumarate]	–
–	–	–	CC(C)C(=O)Oc1ccc(CO)cc1[C@H](CCN(C(C)C)C(C)C)c1ccccc1 [Example 10, Fesoterodine fumarate]	diameter of 90 volume-% of the particles (D90) ([1]; after fine-milling in a grinder for 3-4 minutes): less than 50 microns
